Assay results: patent US20240366625A1, “COMPOSITIONS CONTAINING AND THERAPIES USING BEMPEDOIC ACID AND TOLVAPTAN” (Esperion Therapeutics, Inc., priority 2021, published 2024)

How the values were obtained:
pACC = experiment: Immunoblot of liver lysates, early onset ADPKD mice: pACC; format: in vivo, mouse; details: bempedoic acid 30 mg/kg/d; P22
Experimental: (§1) Doxycycline was administered intraperitoneally (50 mg/kg/day) on postnatal days 10 and 11 (P10 and P11) to induce Pkd1 deletion and rapidly progressive PKD in the Cre+ mice. Mice were treated with the various drugs and combinations or vehicle by oral gavage daily from P12-P21 and were then sacrificed at P22 of age to harvest kidneys for histology, weight measurements and blood urea nitrogen (BUN) measurements. Treatments were vehicle, tolvaptan 30 mg/kg/d, tolvaptan 100 mg/kg/d, bempedoic acid 30 mg/kg/d, tolvaptan 30 mg/kg/d+bempedoic acid 30 mg/kg/d, and tolvaptan 100 mg/kg/d+bempedoic acid 30 mg/kg/d; also included was an uninduced, untreated group without PKD. Each treatment group consisted of 3-6 mice.
(§2) Liver sample lysates were prepared in buffer and separated using SDS-PAGE. Separated proteins were then electrophoretically transferred to membranes. Nonspecific binding was blocked and membranes were probed with antibodies against pACLY, pThr172AMPKα, PGC1alpha, FATP2, pACC, and cleaved Cas3. Membranes were incubated with appropriate detection antibodies and relative signal intensity determined. Target protein levels were normalized to total protein levels.

total KIM-1 = experiment: Immunoblot of kidney lysates, early onset ADPKD mice: KIM-1; format: in vivo, mouse; details: bempedoic acid 30 mg/kg/d; P22
Experimental: as §1
(§3) At the end of the study, kidney sample lysates were prepared in buffer and separated using SDS-PAGE. Separated proteins were then electrophoretically transferred to membranes. Nonspecific binding was blocked, and membranes were probed with antibodies against phosphorylated (Thr172)-AMPK, phosphorylated P70S6K, phosphorylated ERK, phosphorylated ACLY, total KIM-1, and total neutrophil gelatinase-associated lipocalin (NGAL). Membranes were incubated with appropriate detection antibodies and relative signal intensity determined. Protein levels were normalized to total protein levels. […] These effects of bempedoic acid occurred both alone and in combination with tolvaptan therapy.

[1] = test system: late onset, slowly developing ADPKD mouse model Pkd1fl/fl;Pax8-rtTA;Tet-On-Cre; experiment: Late onset, slowly developing ADPKD mouse model: kidney weight to body weight; format: in vivo; details: bempedoic acid 30 mg/kg/d mixed with food from P30
Experimental: The example describes characterization of the late onset, slowly developing ADPKD mouse model Pkd1fl/fl;Pax8-rtTA;Tet-On-Cre when treated with bempedoic acid.
Doxycycline was administered intraperitoneally (50 mg/kg/day) on postnatal days 27-29 (P27-P29) and again on P43 and P57 to induce later Pkd1 knockout and slowly progressive PKD in the Cre+ mice. Mice were then sacrificed at […], P60, and P120 for measurements of total kidney weight to body weight ratios.

phosphorylated ACLY = experiment: Immunoblot of kidney lysates, early onset ADPKD mice: pACLY; format: in vivo, mouse; details: bempedoic acid 30 mg/kg/d alone or in combination with tolvaptan; P22
Experimental: as §1, §3

pThr172AMPKα = experiment: Immunoblot of liver lysates, early onset ADPKD mice: pAMPK; format: in vivo, mouse; details: bempedoic acid 30 mg/kg/d; P22
Experimental: as §1, §2

FATP2 = experiment: Immunoblot of liver lysates, early onset ADPKD mice: FATP2; format: in vivo, mouse; details: bempedoic acid 30 mg/kg/d alone or in combination with tolvaptan 100 mg/kg/d; P22
Experimental: as §1, §2

[2] = test system: total neutrophil gelatinase-associated lipocalin (NGAL); experiment: Immunoblot of kidney lysates, early onset ADPKD mice: NGAL; format: in vivo, mouse; details: P22
Experimental: as §1, §3

phosphorylated P70S6K = experiment: Immunoblot of kidney lysates, early onset ADPKD mice: pP70S6K (mTOR pathway); format: in vivo, mouse; details: bempedoic acid 30 mg/kg/d alone or in combination with tolvaptan; P22
Experimental: as §1, §3

[3] = test system: proximal tubule (PT)-derived Pkd1−/− kidney epithelial cells; experiment: Cyst growth of PT-derived Pkd1−/− kidney epithelial cells in 3D cultures (Matrigel); format: cell-based, mouse; details: 10 μM forskolin+100 μM IBMX, vs vehicle (DMSO)
Experimental: The example describes cell growth inhibition studies in 3D cultures of kidney epithelial cells using either of ACLY inhibitors bempedoic acid or SB-204990. […] Cells were grown in Matrigel 12 days and treated with 10 μM forskolin+100 μM IBMX for 11 days, and then treated with either vehicle (DMSO; CON), 500 μM metformin, 100 μM ETC-1002 (bempedoic acid) or 30 μM SB-204990 either alone or in combination as shown for the last 3 days (FIG. 2A). […] Error bars indicate 95% confidence interval (CI) (*P<0.05, **P<0.01, ***P<0.001 for the indicated comparisons by one-way ANOVA and Tukey's multiple comparison test) (FIG. 2B).

[4] = test system: phosphorylated (Thr172)-AMPK; experiment: Immunoblot of kidney lysates, early onset ADPKD mice: pAMPK; format: in vivo, mouse; details: bempedoic acid 30 mg/kg/d alone or in combination with tolvaptan; P22
Experimental: as §1, §3

pACLY = experiment: Immunoblot of liver lysates, early onset ADPKD mice: pACLY; format: in vivo, mouse; details: bempedoic acid 30 mg/kg/d alone or in combination with tolvaptan 100 mg/kg/d; P22
Experimental: as §1, §2

[5] = test system: inner medullary collecting duct (IMCD)-derived Pkd1−/− kidney epithelial cells; experiment: Cyst growth of IMCD-derived Pkd1−/− kidney epithelial cells in 3D cultures (Matrigel); format: cell-based, mouse; details: 10 μM forskolin+100 μM IBMX
Experimental: ETC-1002 inhibited cyst growth of inner medullary collecting duct (IMCD)-derived Pkd1−/− kidney epithelial cells in 3D cultures. Cells were grown in Matrigel for 6 days and treated with 10 μM forskolin+100 μM IBMX±500 μM metformin and/or 100 μM of ETC-1002 (bempedoic acid) for the last 3 days alone or in combination as shown (FIG. 2C). […] Error bars indicate 95% CI (*P<0.05, **P<0.01, ***P<0.001 for the indicated comparisons by one-way ANOVA and Tukey's multiple comparison test) (FIG. 2D).

phosphorylated ERK = experiment: Immunoblot of kidney lysates, early onset ADPKD mice: pERK; format: in vivo, mouse; details: bempedoic acid 30 mg/kg/d alone or in combination with tolvaptan; P22
Experimental: as §1, §3

[6] = test system: early onset, rapidly developing ADPKD mouse model Pkd1fl/fl;Pax8-rtTA;Tet-O-Cre; experiment: Early onset, rapidly developing ADPKD mouse model: kidney size, kidney weight to body weight, BUN; format: in vivo; details: for BUN: vehicle 107±14; for kidney size (H&E stains of kidney sections) compared to vehicle control: oral gavage daily P12-P21, P22
Experimental: The example describes characterization of the early onset, rapidly developing ADPKD mouse model Pkd1fl/fl;Pax8-rtTA;Tet-O-Cre homozygous in the C57BL/6 background.
as §1

CC(C)(CCCCCC(O)CCCCCC(C)(C)C(=O)O)C(=O)O [Bempedoic acid]
phosphorylation of AMPK target ACC in liver tissue (pACC): promoted phosphorylation
reduction of KIM-1 expression (marker of kidney injury), kidney lysate (total KIM-1): > 70%
total kidney weight to body weight ratio ([1]; P60, male mice): significantly reduced total kidney weight to body weight ratio
total kidney weight to body weight ratio ([1]; P120, male and female mice): a trend that was also observed
ACLY activity (pACLY relative to total protein), kidney lysate (phosphorylated ACLY): reduced ACLY
AMPK activity (pThr172 relative to total protein), liver lysate (pThr172AMPKα): increased AMPK activity
FATP2 expression relative to total protein, liver lysate (FATP2): increased FATP2 expression
NGAL signaling pathway (NGAL relative to total protein), kidney lysate ([2]; bempedoic acid 30 mg/kg/d alone or in combination with tolvaptan): inhibited
reduction of NGAL expression compared with reduction of KIM-1 expression, kidney lysate ([2]; bempedoic acid 30 mg/kg/d): to a lesser extent
mTOR signaling pathway (pP70S6K relative to total protein), kidney lysate (phosphorylated P70S6K): inhibited
cyst area relative to control ([3]; 100 μM ETC-1002 for the last 3 days): significantly reduced cyst area
AMPK activity (pThr172 relative to total protein), kidney lysate [4]: stimulated AMPK
pACLY (activation marker) relative to total protein, liver lysate (pACLY): inhibited pACLY
cyst area relative to control ([5]; 100 μM ETC-1002 alone for the last 3 days): significantly reduced cyst area
ERK signaling pathway (pERK relative to total protein), kidney lysate (phosphorylated ERK): inhibited
total kidney weight to body weight ratio ([6]; bempedoic acid 30 mg/kg/d oral gavage P12-P21, P22, vehicle 11.9±1.2%): 6.9±0.4%
BUN ([6]; bempedoic acid 30 mg/kg/d oral gavage P12-P21, P22): 59 ± 13 mg/dL
kidney size (H&E stains of kidney sections) compared to vehicle control [6]: marked reduction in kidney size

O=C(O)C[C@@]1(O)C[C@@H](CCCCCCc2ccc(Cl)cc2Cl)OC1=O [SB-204990]
cyst area relative to control ([3]; 30 μM SB-204990 for the last 3 days): significantly reduced cyst area

CN(C)C(=N)N=C(N)N [metformin]
cyst area relative to control ([3]; 500 μM metformin for the last 3 days): significantly reduced cyst area
cyst area relative to control ([5]; 500 μM metformin alone for the last 3 days): significantly reduced cyst area

Cc1ccccc1C(=O)Nc1ccc(C(=O)N2CCCC(O)c3cc(Cl)ccc32)c(C)c1 (centres unmarked) [tolvaptan, Tolvaptan]
kidney size (H&E stains of kidney sections) compared to vehicle control [6]: marked reduction in kidney size
BUN ([6]; tolvaptan 30 mg/kg/d oral gavage P12-P21, P22): 68 ± 8 mg/dL
total kidney weight to body weight ratio ([6]; tolvaptan 30 mg/kg/d oral gavage P12-P21, P22, vs vehicle): reduced total kidney weight to body weight ratio
total kidney weight to body weight ratio ([6]; tolvaptan 100 mg/kg/d oral gavage P12-P21, P22, vehicle 11.9±1.2%): 7.8±1.0%
BUN ([6]; tolvaptan 100 mg/kg/d oral gavage P12-P21, P22): 35 ± 7 mg/dL
